One molecule from patent US6573296B2, “Therapeutic quassinoid preparations with antineoplastic, antiviral, and herbistatic activity” (priority 1997, dated 2003) can be followed below.

The subject of this experiment is Arabadopsis (var. Columbia). Kind of experiment: growth of plants in soil after foliar application. It is filed as in vivo. The method, then:
To evaluate the growth phenotype of a set of plants, a 1 mg concentration of 100 Mm (solution QD-2). This solution was diluted serially with water with or without Triton X-100, ethanol or DMSO and used directly for measurement of effects on seed germination or applied using a microliter syringe to foliage to evaluate growth effects on plants.
When applied to Arabadopsis (var. Columbia) growing in soil in 4 inch plastic pots, the glaucarubolone preparation was herbicidal at dilutions of 1:100 and 1:1000 (10 μ1/half pot). Plants were treated after 10 days of germination. At a dilution of 1:10,000, the plants were not killed but growth was completely stopped for about 3 weeks. Growth resumed about 30 days after treatment. […] The calculated application rate was 2.5×10^−3 oz/A.
In an experiment with Arabadopsis where the quassinoid preparation was administered in ethanol, herbicidal activity was observed down to a dilution of 1:10^4 (2.5×10^−5 oz/A) and a dilution of 1:10^5 (2.5×10^−6 oz/A) appeared to stop growth for at least 30 days. All plants were watered from the bottom to reduce surface spreading of the material. The inhibited phenotype includes an impaired ability of the plants to grow, i.e., cell elongation/cell expansion is prevented or reduced by at least 50% over several weeks.

Take `CC1=CC(=O)C(O)C2(C)C1CC1OC(=O)C(O)C3C(C)C(O)C4(O)OCC13C42` (stereo not shown) [Glaucarubolone, glaucarubolone]: the “plants which survived and did not grow for >50 days” value (dilution of 1:1000 (2.5×10^−3 oz/A)) is given as “Approximately 10%”. Moreover, the “time after treatment at which growth resumed” value (dilution of 1:10,000) is “about 30 days”. For the setting “dilution of 1:10,000 (2.5×10^−4 oz/A), plants not killed”, the “time for which growth was completely stopped” value is listed as “about 3 weeks”. Besides, the “effect on plants, in words” value (dilutions of 1:100 and 1:1000 (10 μl/half pot), treated after 10 days of germination) was “herbicidal”.
